Laboratory results as given in patent publication US20220372020A1, “CRYSTALLINE FORMS OF PHTHALAZINONE COMPOUND” (Idience Co., Ltd., priority 2020, published 2022).

Experiments:
[1] = Long-term stability purity test (total impurities by HPLC); assay type: physicochemical; details: relative humidity 60±5%; for Total impurities content: HPLC
Description: Crystalline Form A of the compound of Formula 1 prepared in Example 1 was stored under long-term storage conditions (25±2° C., and Relative humidity: 60±5%). Samples were taken after 3 months, 6 months, 9 months, 12 months, 18 months, and even 24 months from the onset of the storage to measure total impurities content by high performance liquid chromatography (HPLC).

[2] = Storage behaviour of the amorphous form; assay type: physicochemical
From the text: The obtained amorphous form readily absorbed water during the storage, i.e., it was hygroscopic, whereby the color turned yellow. It was thus confirmed that the amorphous form was not suitable for use as a medicinal drug substance.

[3] = tested on: poly(ADP-ribose) polymerase (PARP); details: as disclosed in US'973; cited from earlier work

Cl.O=C(c1cc(Cc2n[nH]c(=O)c3ccccc23)ccc1F)N1CC(CNC2CC2)C1 [Crystalline Form A, 4-[3-(3-[(cyclopropylamino)methyl]azetidine-1-carbonyl)-4-fluorobenzyl]phthalazin-1(2H)-one hydrochloride]
Total impurities content ([1]; 3 months, 25±2° C.): 0.15% wt % | Total impurities content ([1]; 6 months, 25±2° C.): 0.16% wt % | Total impurities content ([1]; 9 months, 25±2° C.): 0.15% wt % | Total impurities content ([1]; 12 months, 25±2° C.): 0.14% wt % | Total impurities content ([1]; 18 months, 25±2° C.): 0.19% wt % | Stability under long-term storage conditions (in words) ([1]; 25±2° C., up to 24 months): high stability | Total impurities content ([1]; Initial, long-term storage 25±2° C.): 0.14% wt %

Cl.O=C(c1cc(Cc2n[nH]c(=O)c3ccccc23)ccc1F)N1CC(CNC2CC2)C1 [amorphous form, 4-[3-(3-[(cyclopropylamino)methyl]azetidine-1-carbonyl)-4-fluorobenzyl]phthalazin-1(2H)-one hydrochloride]
Colour change during storage [2]: turned yellow | Water absorption during storage (hygroscopicity) [2]: hygroscopic

Cl.O=C(c1cc(Cc2n[nH]c(=O)c3ccccc23)ccc1F)N1CC(CNC2CC2)C1 [compound of Formula 1, 4-[3-(3-[(cyclopropylamino)methyl]azetidine-1-carbonyl)-4-fluorobenzyl]phthalazin-1(2H)-one hydrochloride]
PARP inhibitory activity [3]: PARP inhibitory activity
